Assay: xn = mol fraction of the nth substance listed
[1] = 298.15 K, 101.3 kPa, x1 = 0.333
[2] = 303.15 K, 101.3 kPa, x1 = 0.333
[3] = 308.15 K, 101.3 kPa, x1 = 0.333
[4] = 313.15 K, 101.3 kPa, x1 = 0.333

## CC(CC(C)(C)C)CP(=O)([O-])CC(C)CC(C)(C)C.CCCCCCCCCCCCCC[P+](CCCCCC)(CCCCCC)CCCCCC + O
298.15 K, 100 kPa, x1 = 0.0942
  viscosity: 133 mPa·s
298.15 K, 100 kPa, x1 = 0.1083
  viscosity: 128 mPa·s
303.15 K, 100 kPa, x2 = 0.8862
  viscosity: 119.5 mPa·s

## CCCCC(CC)COC(=O)CC(C(=O)OCC(CC)CCCC)S(=O)(=O)[O-].CCCC[n+]1ccn(C)c1 (centres undefined) + O
313.15 K, 99.6 kPa, x1 = 0.8695
  viscosity: 692 mPa·s
323.15 K, 99.6 kPa, x1 = 0.8695
  viscosity: 363 mPa·s
333.15 K, 99.6 kPa, x1 = 0.8695
  viscosity: 207 mPa·s

## CCCCCCCC(=O)[O-].CCCCCC[NH+](CCCCCC)CCCCCC + O
298.15 K, 101 kPa, x1 = 0.3915
  viscosity: 15.42 mPa·s
298.15 K, 101 kPa, x1 = 0.7748
  viscosity: 21.01 mPa·s

## CCCCCCCCCCCCOS(=O)(=O)[O-].CCCC[n+]1ccn(C)c1 + O
303 K, 101 kPa, x1 = 0.011
  viscosity: 300 mPa·s
303 K, 101 kPa, x1 = 0.0288
  viscosity: 113000 mPa·s
303 K, 101 kPa, x1 = 0.0626
  viscosity: 1070000 mPa·s
303 K, 101 kPa, x1 = 0.1512
  viscosity: 4200000 mPa·s
303 K, 101 kPa, x1 = 1
  viscosity: 1.32e+07 mPa·s
333 K, 101 kPa, x1 = 0.011
  viscosity: 25000 mPa·s
333 K, 101 kPa, x1 = 0.0288
  viscosity: 335000 mPa·s
333 K, 101 kPa, x1 = 0.1512
  viscosity: 1780000 mPa·s

## CCCCCCCCCC[n+]1ccn(C)c1.[Cl-] + O
298.15 K, 101.3 kPa, x1 = 0.0171
  electrical conductivity: 3.25 S/m

## CCCCCCCCn1cc[n+](C)c1.[Br-] + O
298.15 K, 100 kPa, x2 = 0.9008
  viscosity: 31.3 mPa·s
298.15 K, 100 kPa, x2 = 0.9487
  viscosity: 7.96 mPa·s

## CCCCCCCCn1cc[n+](C)c1.[Cl-] + O
298.15 K, 101 kPa, x2 = 0
  speed of sound: 1721 m/s
298.15 K, 101 kPa, x2 = 0.1484
  speed of sound: 1666.7 m/s
298.15 K, 101 kPa, x2 = 0.203
  speed of sound: 1655.1 m/s
298.15 K, 101 kPa, x2 = 0.5334
  speed of sound: 1632.2 m/s
298.15 K, 101 kPa, x2 = 0.6807
  speed of sound: 1639.3 m/s
298.15 K, 101 kPa, x2 = 0.8185
  speed of sound: 1650.7 m/s
298.15 K, 101 kPa, x2 = 0.9307
  speed of sound: 1639.6 m/s
298.15 K, 101 kPa, x2 = 0.9635
  speed of sound: 1611.3 m/s

## CCCCCC[n+]1ccn(C)c1.[Br-] + O
298.15 K, 100 kPa, x2 = 0.9487
  viscosity: 2.88 mPa·s

## CCCC[NH3+].O=[N+]([O-])[O-] + O
303.15 K, 101 kPa, x2 = 0.3495
  viscosity: 22.35 mPa·s
308.15 K, 101 kPa, x2 = 0.3495
  viscosity: 19.25 mPa·s
313.15 K, 101 kPa, x2 = 0.3495
  viscosity: 16.75 mPa·s

## CCCC[P+](CCCC)(CCCC)CCCC.[Cl-] + O
313.15 K, 101 kPa, x1 = 0.0438
  viscosity: 2.533 mPa·s

## CCCC[n+]1ccn(C)c1.[Br-] + O
298.15 K, 100 kPa, x2 = 0.9487
  viscosity: 2.21 mPa·s

## CC[N+](CC)(CC)CC.[Cl-] + O
323 K, 100 kPa, x1 = 0.2
  electrical conductivity: 4.1 S/m

## CC[n+]1ccn(C)c1.[Cl-] + O
373 K, 100 kPa, x1 = 0.8
  viscosity: 20 mPa·s
373 K, 100 kPa, x1 = 0.9524
  viscosity: 27 mPa·s

## CCn1cc[n+](C)c1.O=S(=O)([O-])C(F)(F)C(F)(F)C(F)(F)C(F)(F)F + O
298.15 K, 101.3 kPa, x1 = 0.0001
  viscosity: 1.038 mPa·s
298.15 K, 101.3 kPa, x1 = 0.0005
  viscosity: 1.111 mPa·s
298.15 K, 101.3 kPa, x1 = 0.0011
  viscosity: 1.091 mPa·s
298.15 K, 101.3 kPa, x1 = 0.0018
  viscosity: 1.164 mPa·s
298.15 K, 101.3 kPa, x1 = 0.0049
  viscosity: 1.367 mPa·s
298.15 K, 101.3 kPa, x1 = 0.0109
  viscosity: 1.96 mPa·s
298.15 K, 101.3 kPa, x2 = 0.9783
  viscosity: 3.03 mPa·s

## C[N+](C)(C)CCO.O=C([O-])[C@@H]1CCCN1 + O
308.15 K, 100 kPa, x1 = 0.0043
  viscosity: 0.91 mPa·s
308.15 K, 100 kPa, x1 = 0.0342
  viscosity: 2.01 mPa·s
323.15 K, 100 kPa, x1 = 0.0202
  viscosity: 1.11 mPa·s
323.15 K, 100 kPa, x1 = 0.0342
  viscosity: 1.52 mPa·s
338.15 K, 100 kPa, x1 = 0.0202
  viscosity: 1 mPa·s
353.15 K, 100 kPa, x1 = 0.0202
  viscosity: 0.88 mPa·s
353.15 K, 100 kPa, x1 = 0.0342
  viscosity: 0.98 mPa·s

## CC(O)C(=O)[O-].CN(C)CCOCC[NH+](C)C + O
298.15 K, 100 kPa, x1 = 0.0172
  viscosity: 1.2 mPa·s
298.15 K, 100 kPa, x1 = 0.0301
  viscosity: 1.28 mPa·s
298.15 K, 100 kPa, x1 = 0.0456
  viscosity: 1.76 mPa·s
298.15 K, 100 kPa, x1 = 0.0985
  viscosity: 6.58 mPa·s

## CCCC[N+](CCCC)(CCCC)CCCC.[Cl-] + OCC(O)CO
318.15 K, 100 kPa, x1 = 0.333
  viscosity: 57.8 mPa·s

## CCCC[n+]1ccn(C)c1.[Cl-] + OCC(O)CO
298.15 K, 101 kPa, x2 = 0.333
  speed of sound: 1838.8 m/s
303.15 K, 101 kPa, x2 = 0.333
  speed of sound: 1826.5 m/s
313.15 K, 101 kPa, x2 = 0.333
  speed of sound: 1802.4 m/s

## CC[N+](CC)(CC)CC.[Cl-] + OCC(O)CO
318.15 K, 100 kPa, x1 = 0.333
  viscosity: 94.1 mPa·s

## CC[N+]1(C)CCCC1.[Br-] + OCC(O)CO
313.15 K, 100 kPa, x1 = 0.3333
  speed of sound: 1870.1 m/s

## CC[n+]1ccn(C)c1.[Cl-] + OCC(O)CO
298.15 K, 101 kPa, x1 = 0.667
  viscosity: 345 mPa·s
303.15 K, 101 kPa, x1 = 0.667
  viscosity: 243 mPa·s
323.15 K, 101 kPa, x1 = 0.667
  viscosity: 75.6 mPa·s
333.15 K, 101 kPa, x1 = 0.667
  viscosity: 47.2 mPa·s

## C[N+](C)(C)CCCl.[Cl-] + OCC(O)CO
318.15 K, 100 kPa, x1 = 0.333
  viscosity: 161 mPa·s

## CC[N+]1(C)CCCC1.[Br-] + OCCCCCCO
293.15 K, 101.3 kPa, x1 = 0.333
  speed of sound: 1915.5 m/s
[1]
  speed of sound: 1903.4 m/s
[2]
  speed of sound: 1891.8 m/s
[3]
  speed of sound: 1879.3 m/s
[4]
  speed of sound: 1869.1 m/s

## CCCC[P+](CCCC)(CCCC)CCCC.[Br-] + OCCO
[1]
  viscosity: 93.4 mPa·s
[2]
  viscosity: 72.4 mPa·s
[3]
  viscosity: 56.9 mPa·s
[4]
  viscosity: 45.3 mPa·s
318.15 K, 101.3 kPa, x1 = 0.333
  viscosity: 36.6 mPa·s

## CCCC[n+]1ccn(C)c1.[Cl-] + OCCO
303.15 K, 100 kPa, x1 = 0.333
  electrical conductivity: 0.966 S/m
303.15 K, 100 kPa, x1 = 0.5
  electrical conductivity: 1.06 S/m

## CC[N+]1(C)CCCC1.[Br-] + OCCO
293.15 K, 100 kPa, x1 = 0.2
  speed of sound: 1716 m/s
298.15 K, 100 kPa, x1 = 0.2
  speed of sound: 1704 m/s
303.15 K, 100 kPa, x1 = 0.2
  speed of sound: 1692 m/s
308.15 K, 100 kPa, x1 = 0.2
  speed of sound: 1681 m/s
313.15 K, 100 kPa, x1 = 0.2
  speed of sound: 1654 m/s

## [Cl-].c1ccc(C[P+](c2ccccc2)(c2ccccc2)c2ccccc2)cc1 + OCCO
303.15 K, 100 kPa, x1 = 0.0833
  viscosity: 69.7 mPa·s
313.15 K, 100 kPa, x1 = 0.0833
  viscosity: 50.2 mPa·s
333.15 K, 100 kPa, x1 = 0.0833
  viscosity: 31 mPa·s
353.15 K, 100 kPa, x1 = 0.0833
  viscosity: 21.35 mPa·s

## CCCC[P+](CC)(CCCC)CCCC.[Br-] + OCCOCCO
303.15 K, 101 kPa, x1 = 0.333
  viscosity: 77 mPa·s
313.15 K, 101 kPa, x1 = 0.333
  viscosity: 48.93 mPa·s
323.15 K, 101 kPa, x1 = 0.333
  viscosity: 32.91 mPa·s
343.15 K, 101 kPa, x1 = 0.333
  viscosity: 16.88 mPa·s

## CCCC[N+]1(C)CCCC1.O=S(=O)([N-]S(=O)(=O)C(F)(F)F)C(F)(F)F + OCCOCCOCCOCCO
298.15 K, 101 kPa, x2 = 0
  viscosity: 70.5 mPa·s

## CCCC[N+]1(C)CCCCC1.O=S(=O)([N-]S(=O)(=O)C(F)(F)F)C(F)(F)F + OCCOCCOCCOCCO
298.15 K, 101 kPa, x2 = 0
  viscosity: 178.5 mPa·s
298.15 K, 101 kPa, x2 = 0.5
  viscosity: 79.5 mPa·s

## CCCC[n+]1ccn(C)c1.O=S(=O)([O-])C(F)(F)F + OCCOCCOCCOCCO
298.15 K, 101 kPa, x2 = 0
  viscosity: 59.8 mPa·s

## CCCC[n+]1ccn(C)c1C.F[B-](F)(F)F + OCCOCCOCCOCCO
298.15 K, 101 kPa, x2 = 0
  viscosity: 573 mPa·s
298.15 K, 101 kPa, x2 = 0.5
  viscosity: 82.1 mPa·s

## CCCn1cc[n+](C)c1C.O=S(=O)([N-]S(=O)(=O)C(F)(F)F)C(F)(F)F + OCCOCCOCCOCCO
298.15 K, 101 kPa, x2 = 0
  viscosity: 85.6 mPa·s
298.15 K, 101 kPa, x2 = 0.5
  viscosity: 56.1 mPa·s

## C[N+](C)(C)CCO.O=S(=O)([N-]S(=O)(=O)C(F)(F)F)C(F)(F)F + OCCOCCOCCOCCO
298.15 K, 101 kPa, x2 = 0.5
  viscosity: 87 mPa·s

## CC[N+](CC)(CC)CC.[Cl-] + Oc1ccccc1
303.15 K, 101 kPa, x1 = 0.333
  viscosity: 72.1 mPa·s
313.15 K, 101 kPa, x1 = 0.2
  viscosity: 21.28 mPa·s
313.15 K, 101 kPa, x1 = 0.25
  viscosity: 24.68 mPa·s
313.15 K, 101 kPa, x1 = 0.333
  viscosity: 43 mPa·s
323.15 K, 101 kPa, x1 = 0.25
  viscosity: 16.86 mPa·s
323.15 K, 101 kPa, x1 = 0.333
  viscosity: 27.8 mPa·s

## CCCCCCCCn1cc[n+](C)c1.O=S(=O)([N-]S(=O)(=O)C(F)(F)F)C(F)(F)F + c1ccccc1
293 K, 101 kPa, x1 = 0.1
  viscosity: 3.21 mPa·s
293 K, 101 kPa, x1 = 0.4
  viscosity: 23.5 mPa·s
293 K, 101 kPa, x1 = 0.8
  viscosity: 74.4 mPa·s
293 K, 101 kPa, x1 = 1
  viscosity: 113 mPa·s

— a compilation of properties of binary mixtures
